Test results published in ChEMBL document CHEMBL1201862, “PubChem BioAssay data set” (2004).
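Results reflect a 48-hour exposure of cells in 96-well plates to compound at five concentrations. GI50 = concentration required for 50% inhibition of growth.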 Active and inactive are the calls of the source. No stated cut-off is given here; in the data, active = GI50 up to about 1.1 µM and inactive = higher.

Assays:
Test in all cases: inhibition of tumour cell growth, NCI panel, 48 h
EKVX = tested on: EKVX
HCT-116 = tested on: HCT-116
MDA-N = tested on: MDA-N
Malme-3M = tested on: Malme-3M
NCI-H226 = tested on: NCI-H226
NCI-H460 = tested on: NCI-H460
OVCAR-5 = tested on: OVCAR-5
SF-539 = tested on: SF-539
SK-MEL-28 = tested on: SK-MEL-28
SK-MEL-5 = tested on: SK-MEL-5
SN12C = tested on: SN12C
T47D = tested on: T47D
U-251 = tested on: U-251
UACC-257 = tested on: UACC-257
UACC-62 = tested on: UACC-62
COLO 205 = tested on: COLO 205
IGROV-1 = tested on: IGROV-1
SW-620 = tested on: SW-620
TK-10 = tested on: TK-10
MCF7 = tested on: MCF7

Measured: GI50

CN1CCN(CCCN2c3ccccc3Sc3ccc(C(F)(F)F)cc32)CC1
inactive: EKVX 14.5 µM | HCT-116 8.04 µM | MDA-N 3.6 µM | Malme-3M 2.69 µM | NCI-H226 15.5 µM | NCI-H460 3.86 µM | OVCAR-5 10.1 µM | SF-539 7.28 µM | SK-MEL-28 1.82 µM | SK-MEL-5 3.09 µM | SN12C 12.2 µM | T47D 10 µM | U-251 8.34 µM | UACC-257 2.6 µM | UACC-62 2.1 µM

CC1=NN2C(c3ccc(C)cc3)=CSC2=NC(C)(C)C1
inactive: COLO 205 > 100 µM | EKVX > 100 µM | HCT-116 > 100 µM | IGROV-1 > 100 µM | Malme-3M > 100 µM | NCI-H226 > 100 µM | NCI-H460 > 100 µM | OVCAR-5 > 100 µM | SF-539 > 100 µM | SK-MEL-28 > 100 µM | SK-MEL-5 > 100 µM | SN12C > 100 µM | SW-620 > 100 µM | TK-10 > 100 µM | U-251 > 100 µM | UACC-257 > 100 µM | UACC-62 > 100 µM

CC(=O)NNc1nc(C)c(C(=O)NNC(=O)C(=O)Nc2ccc(Cl)c([N+](=O)[O-])c2)s1
inactive: COLO 205 > 100 µM | EKVX > 100 µM | HCT-116 85.3 µM | IGROV-1 > 100 µM | Malme-3M 71.4 µM | NCI-H226 > 100 µM | NCI-H460 > 100 µM | OVCAR-5 > 100 µM | SF-539 53 µM | SK-MEL-28 > 100 µM | SK-MEL-5 > 100 µM | SN12C 71.8 µM | SW-620 32.2 µM | TK-10 > 100 µM | U-251 50.9 µM | UACC-257 37.4 µM | UACC-62 58.9 µM

COC(=O)c1nsc(OC)c1Cl
inactive: COLO 205 > 100 µM | EKVX > 100 µM | HCT-116 > 100 µM | IGROV-1 > 100 µM | MCF7 > 100 µM | MDA-N > 100 µM | Malme-3M > 100 µM | NCI-H226 > 100 µM | OVCAR-5 > 100 µM | SF-539 > 100 µM | SK-MEL-28 > 100 µM | SK-MEL-5 > 100 µM | SN12C > 100 µM | SW-620 > 100 µM | TK-10 > 100 µM | U-251 > 100 µM | UACC-257 > 100 µM | UACC-62 > 100 µM

CCC1OC2C(CC=C(C)C)=C3OC(C)(O)C(C)(CC)C(=O)C3=C3OC(=O)C=C1C32 (centres undefined)
inactive: COLO 205 20.5 µM | EKVX 29.4 µM | HCT-116 15.5 µM | MCF7 27.9 µM | NCI-H226 25.9 µM | NCI-H460 17.4 µM | OVCAR-5 65.3 µM | SF-539 8.55 µM | SK-MEL-28 27.6 µM | SK-MEL-5 16.5 µM | SW-620 27.5 µM | T47D 66.2 µM | TK-10 46.5 µM | U-251 36 µM | UACC-257 26.8 µM | UACC-62 20.7 µM

Nc1nc(N)c(-c2ccccc2)c(C(=O)Nc2nccs2)n1
inactive: COLO 205 > 100 µM | EKVX > 100 µM | HCT-116 > 100 µM | IGROV-1 > 100 µM | Malme-3M > 100 µM | NCI-H226 > 100 µM | NCI-H460 > 100 µM | OVCAR-5 > 100 µM | SF-539 > 100 µM | SK-MEL-28 > 100 µM | SK-MEL-5 > 100 µM | SN12C > 100 µM | SW-620 > 100 µM | TK-10 > 100 µM | U-251 > 100 µM | UACC-257 > 100 µM | UACC-62 > 100 µM

Cc1ccc(S(=O)(=O)N2CCCSCCSCCCSCC2)cc1
inactive: COLO 205 > 100 µM | EKVX > 100 µM | HCT-116 > 100 µM | IGROV-1 > 100 µM | MCF7 > 100 µM | NCI-H460 > 100 µM | OVCAR-5 > 100 µM | SF-539 > 100 µM | SK-MEL-28 > 100 µM | SK-MEL-5 > 100 µM | SN12C > 100 µM | SW-620 > 100 µM | T47D > 100 µM | TK-10 > 100 µM | U-251 > 100 µM | UACC-257 > 100 µM | UACC-62 > 100 µM

CCOC(=O)c1c(C)n(Cc2ccccc2)c(=O)c2ccccc2c(=O)c2c(=O)ccc(=O)c1=2
inactive: COLO 205 43.4 µM | EKVX > 100 µM | HCT-116 18.2 µM | IGROV-1 22.3 µM | MDA-N 73.8 µM | Malme-3M 19.9 µM | NCI-H226 > 100 µM | NCI-H460 > 100 µM | OVCAR-5 > 100 µM | SF-539 48.2 µM | SK-MEL-28 55.7 µM | SK-MEL-5 > 100 µM | SN12C 41 µM | SW-620 33.3 µM | T47D 30.6 µM | TK-10 29.1 µM | U-251 > 100 µM | UACC-257 > 100 µM | UACC-62 > 100 µM

COc1cc(C(C)c2cc3c(cc2OCCNC(=O)COc2cc4c(cc2C(C)c2cc(OC)c(OC)c(OC)c2)OCO4)OCO3)cc(OC)c1OC (centres undefined)
inactive: COLO 205 48.2 µM | EKVX 29.6 µM | HCT-116 87.9 µM | IGROV-1 > 100 µM | Malme-3M > 100 µM | NCI-H226 > 100 µM | NCI-H460 22.2 µM | OVCAR-5 6.38 µM | SF-539 > 100 µM | SK-MEL-28 > 100 µM | SK-MEL-5 > 100 µM | SN12C 60 µM | SW-620 > 100 µM | TK-10 > 100 µM | U-251 > 100 µM | UACC-257 6.56 µM | UACC-62 6.78 µM

COc1cc2c(cc1O)C(C)Cc1cc3c(cc1N(C)CC2)OCO3 (centres undefined)
inactive: COLO 205 24.2 µM | EKVX 4.26 µM | HCT-116 4.04 µM | IGROV-1 10 µM | Malme-3M 3.12 µM | NCI-H226 6.65 µM | NCI-H460 3.35 µM | OVCAR-5 23.1 µM | SF-539 2.72 µM | SK-MEL-28 6.22 µM | SK-MEL-5 2.59 µM | SN12C 5.94 µM | SW-620 3.74 µM | TK-10 27.3 µM | U-251 4.01 µM | UACC-257 6.15 µM | UACC-62 3.5 µM

O=C1CCCCC1CN1CCCCC1 (centres undefined)
inactive: COLO 205 > 100 µM | EKVX > 100 µM | HCT-116 > 100 µM | IGROV-1 > 100 µM | MCF7 > 100 µM | MDA-N > 100 µM | Malme-3M > 100 µM | NCI-H226 > 100 µM | NCI-H460 > 100 µM | OVCAR-5 > 100 µM | SF-539 > 100 µM | SK-MEL-28 > 100 µM | SK-MEL-5 > 100 µM | SN12C > 100 µM | SW-620 > 100 µM | TK-10 > 100 µM | U-251 > 100 µM | UACC-62 > 100 µM

COc1ccc(C(=O)OC2C=COC(C)C2OC(=O)c2ccc(OC)cc2)cc1 (centres undefined)
inactive: COLO 205 42.8 µM | EKVX 36.9 µM | HCT-116 10.2 µM | IGROV-1 37 µM | Malme-3M 18.2 µM | NCI-H226 38.8 µM | NCI-H460 40.7 µM | OVCAR-5 77.1 µM | SF-539 18 µM | SK-MEL-28 16.4 µM | SK-MEL-5 16.7 µM | SN12C 23.3 µM | SW-620 15.6 µM | TK-10 52.6 µM | U-251 36.8 µM | UACC-257 21 µM | UACC-62 18.4 µM

COc1ccc(/C=C/C(=O)C(C)(C)CN2CCCCC2)cc1
inactive: COLO 205 15.6 µM | EKVX 44.7 µM | HCT-116 16.2 µM | IGROV-1 26.2 µM | Malme-3M 22.2 µM | NCI-H226 20.9 µM | NCI-H460 18.7 µM | OVCAR-5 33.7 µM | SF-539 19.8 µM | SK-MEL-28 24.2 µM | SK-MEL-5 19 µM | SN12C 18.3 µM | SW-620 1.13 µM | TK-10 20.8 µM | U-251 15.4 µM | UACC-257 17.4 µM | UACC-62 24.7 µM

COc1cc2oc(=O)cc(C)c2cc1OC
inactive: COLO 205 > 100 µM | EKVX > 100 µM | HCT-116 > 100 µM | IGROV-1 > 100 µM | MCF7 > 100 µM | MDA-N > 100 µM | Malme-3M > 100 µM | NCI-H226 > 100 µM | OVCAR-5 > 100 µM | SF-539 > 100 µM | SK-MEL-28 > 100 µM | SK-MEL-5 > 100 µM | SN12C > 100 µM | SW-620 > 100 µM | TK-10 > 100 µM | U-251 > 100 µM | UACC-257 > 100 µM | UACC-62 > 100 µM

O=C(/C=C\c1cccc2ccccc12)c1ccc(Cl)cc1Cl
inactive: COLO 205 22.4 µM | EKVX 36.5 µM | HCT-116 18.7 µM | IGROV-1 39.7 µM | Malme-3M 26.7 µM | NCI-H226 > 100 µM | NCI-H460 23.4 µM | OVCAR-5 24.4 µM | SF-539 25.8 µM | SK-MEL-28 18.5 µM | SK-MEL-5 36.7 µM | SN12C > 100 µM | SW-620 20 µM | TK-10 97.1 µM | U-251 16.4 µM | UACC-257 27 µM | UACC-62 16.7 µM

COC(=O)[C@@]1(O)CC(C)C=C1C=O (some centres undefined)
inactive: COLO 205 > 100 µM | EKVX > 100 µM | HCT-116 20.8 µM | IGROV-1 > 100 µM | Malme-3M > 100 µM | NCI-H226 > 100 µM | NCI-H460 20.6 µM | OVCAR-5 > 100 µM | SF-539 > 100 µM | SK-MEL-28 > 100 µM | SK-MEL-5 > 100 µM | SN12C > 100 µM | SW-620 40.1 µM | TK-10 > 100 µM | U-251 18.2 µM | UACC-257 > 100 µM | UACC-62 73.6 µM
